Assay results from ChEMBL document CHEMBL1132815, “16Beta-hydroxy-5alpha-cholestane-3,6-dione, a novel cytotoxic oxysterol from the red alga Jania rubens” (2000).
≈ marks a conversion by molar mass, not a printed value.

How the values were obtained:
KB [1] = assay: Cytotoxicity (dichloromethane extract) was evaluated against KB tumor cell line; format: functional; conditions: Homo sapiens, read-out: ID50 (the source's name)
KB [2] = assay: Cytotoxicity (extracted with dichloromethane-methanol) was evaluated against KB tumor cell line; format: functional; conditions: Homo sapiens, read-out: ID50 (the source's name)

CC(C)CCC[C@@H](C)[C@H]1[C@@H](O)C[C@H]2[C@@H]3CC(=O)[C@H]4CC(=O)CC[C@]4(C)[C@H]3CC[C@]12C
IC50 (KB [1]): 5 µg/mL (≈ 12 µM)
IC50 (KB [2]): 0.5 µg/mL (≈ 1.2 µM)
